The test system of this test is BDF1 mice, P388 leukemia ip, median survival T/C. Briefly: NCI In Vivo Anticancer Drug Screen. Data for tumor model P388 Leukemia (intraperitoneal) in B6D2F1 (BDF1) mice. Conditions: endpoint: median survival time, higher = longer survival. In a few lines: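 Each value expresses how treatment altered survival: treated-mouse outcome over vehicle-mouse outcome, both groups bearing the transplanted tumour.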

Setting [1] is: dose: 50.0 mg/kg/injection, schedule: Q01DX009 (ip), vehicle: saline with Tween-80.
Setting [2] is: dose: 100.0 mg/kg/injection, schedule: Q01DX009 (ip), vehicle: saline with Tween-80.
The mark [3] stands for this setting: dose: 200.0 mg/kg/injection, schedule: Q01DX009 (ip), vehicle: saline with Tween-80.
Setting [4] is: dose: 100.0 mg/kg/injection, schedule: Q01DX009 (ip), vehicle: Klucel (hydroxypropylcellulose) (HPC).
Where [5] appears, read: dose: 200.0 mg/kg/injection, schedule: Q01DX009 (ip), vehicle: Klucel (hydroxypropylcellulose) (HPC).
Setting [6] is: dose: 400.0 mg/kg/injection, schedule: Q01DX009 (ip), vehicle: Klucel (hydroxypropylcellulose) (HPC).
Setting [7] is: dose: 6.25 mg/kg/injection, schedule: Q01DX009 (ip), vehicle: saline with Tween-80.
The mark [8] stands for this setting: dose: 12.5 mg/kg/injection, schedule: Q01DX009 (ip), vehicle: saline with Tween-80.
[9] abbreviates: dose: 25.0 mg/kg/injection, schedule: Q01DX009 (ip), vehicle: saline with Tween-80.
[10] abbreviates: dose: 100.0 mg/kg/injection, schedule: Q01DX001 (ip), vehicle: Klucel (hydroxypropylcellulose) (HPC).
[11] abbreviates: dose: 100.0 mg/kg/injection, schedule: Q04DX003 (ip), vehicle: Klucel (hydroxypropylcellulose) (HPC).
[12] abbreviates: dose: 100.0 mg/kg/injection, schedule: Q04DX003 (ip), vehicle: saline with Tween-80.
The mark [13] stands for this setting: dose: 200.0 mg/kg/injection, schedule: Q04DX003 (ip), vehicle: Klucel (hydroxypropylcellulose) (HPC).
The mark [14] stands for this setting: dose: 200.0 mg/kg/injection, schedule: Q04DX003 (ip), vehicle: saline with Tween-80.
The mark [15] stands for this setting: dose: 400.0 mg/kg/injection, schedule: Q01DX001 (ip), vehicle: Klucel (hydroxypropylcellulose) (HPC).
The mark [16] stands for this setting: dose: 400.0 mg/kg/injection, schedule: Q04DX003 (ip), vehicle: Klucel (hydroxypropylcellulose) (HPC).

Values joined by “and” are separate entries in the source; they are usually repeats but may differ in a detail not shown here. Equal values may be shown once. Toxic doses and inconclusive results are not listed.

For `CC(C)N(C)Cc1ccccc1Sc1ccccc1CN(C)C(C)C`, the T/C is 108 % of control (dose: 100.0 mg/kg/injection, schedule: Q01DX001 (ip), vehicle: other); 107 % of control (dose: 200.0 mg/kg/injection, schedule: Q01DX001 (ip), vehicle: other); 97 % of control (dose: 400.0 mg/kg/injection, schedule: Q01DX001 (ip), vehicle: other).
Take `O=S(/C=C/c1ccccc1)c1ccccc1` (centres undefined): the T/C is 104 % of control (dose: 50.0 mg/kg/injection, schedule: Q01DX009 (ip), vehicle: other); 100 % of control (dose: 100.0 mg/kg/injection, schedule: Q01DX009 (ip), vehicle: other); 104 % of control (dose: 200.0 mg/kg/injection, schedule: Q01DX009 (ip), vehicle: other).
Consider `CCOCN(COCC)c1ccc(C)cc1`, for which the T/C under setting [1] is 97 % of control, the T/C under setting [2] is 104 % of control and the T/C under setting [3] is 97 % of control.
For `Cc1[nH]nc(-c2ccon2)c1N=O`, the T/C reads like this: under setting [1], 111 % of control; under setting [2], 113 % of control.
As for `BrC1(Br)CC1(c1ccccc1)c1ccccc1`, the T/C runs as follows: under setting [4], 110 % of control; under setting [5], 110 % of control; under setting [6], 105 % of control.
`CC(=O)Nc1ccc(S(=O)(=O)N/N=C\c2ccc(Cl)c(Cl)c2)cc1`: the T/C is, setting by setting: under setting [7], 99 % of control; under setting [8], 98 % of control; under setting [9], 96 % of control.
Take `CCC(C)P(=O)(N1CC1)N1CC1` (centres undefined): where the note is “dose: 37.5 mg/kg/injection, schedule: Q04DX003 (ip), vehicle: saline”, the T/C was 108 % of control.
Take `CC(=O)OC(C)(C)/C=C/C(=O)[C@](C)(O)[C@H]1[C@H](O)C[C@@]2(C)[C@@H]3CC=C4[C@@H](C=C(O)C(=O)C4(C)C)[C@]3(C)C(=O)C[C@]12C`: the T/C runs as follows: (dose: 1.0 mg/kg/injection, schedule: Q01DX009 (ip), vehicle: saline) 100 % of control; (dose: 2.0 mg/kg/injection, schedule: Q01DX009 (ip), vehicle: saline) 110 % of control.
Take `O=C1c2ccccc2CCC12OC2c1ccc(Cl)cc1` (centres undefined): the T/C under setting [10] is 95 % of control; the T/C under setting [11] is 100 % of control; the T/C under setting [12] was 91 % of control; the T/C (dose: 200.0 mg/kg/injection, schedule: Q01DX001 (ip), vehicle: Klucel (hydroxypropylcellulose) (HPC)) was 100 % of control; the T/C under setting [13] was 104 % of control; the T/C under setting [14] is 104 % of control. For the same compound, the T/C runs as follows: under setting [15], 90 % of control; under setting [16], 104 % of control; (dose: 400.0 mg/kg/injection, schedule: Q04DX003 (ip), vehicle: saline with Tween-80) 95 % of control.
For `CS(=O)(=O)OCCN(CCOS(C)(=O)=O)c1ccc(/C=N/Nc2ncnc3nc[nH]c23)cc1`, the T/C is 120 % of control (dose: 3.13 mg/kg/injection, schedule: Q04DX003 (ip), vehicle: saline with Tween-80); 156 % of control (dose: 66.0 mg/kg/injection, schedule: Q04DX003 (ip), vehicle: saline with Tween-80); 168 % of control and 182 % of control under setting [12]; 165 % of control (dose: 150.0 mg/kg/injection, schedule: Q04DX003 (ip), vehicle: saline with Tween-80); 159 % of control under setting [14].
Take `O=C(C=C(C(F)(F)F)C(F)(F)F)c1cc(Cl)ccc1Cl`: the T/C is 95 % of control (dose: 3.12 mg/kg/injection, schedule: Q01DX009 (ip), vehicle: saline with Tween-80); 95 % of control under setting [7]; 112 % of control (dose: 7.0 mg/kg/injection, schedule: Q04DX003 (ip), vehicle: saline with Tween-80); 120 % of control (dose: 11.0 mg/kg/injection, schedule: Q04DX003 (ip), vehicle: saline with Tween-80); 103 % of control and 108 % of control under setting [8]; 115 % of control (dose: 12.5 mg/kg/injection, schedule: Q04DX003 (ip), vehicle: saline with Tween-80). The T/C was 120 % of control (dose: 16.5 mg/kg/injection, schedule: Q04DX003 (ip), vehicle: saline with Tween-80); 113 % of control (dose: 25.0 mg/kg/injection, schedule: Q04DX003 (ip), vehicle: saline with Tween-80); 121 % of control (dose: 37.5 mg/kg/injection, schedule: Q04DX003 (ip), vehicle: saline with Tween-80).
On to `CC1(c2ccc(Cl)s2)C(=O)N(Cl)C(=O)N1Cl` (centres undefined), for which the T/C under setting [7] is 112 % of control; the T/C under setting [8] is 103 % of control and 106 % of control; the T/C under setting [9] is 106 % of control and 110 % of control; the T/C (dose: 25.0 mg/kg/injection, schedule: Q04DX003 (ip), vehicle: water) is 108 % of control; the T/C under setting [1] was 104 % of control and 120 % of control (2×); the T/C (dose: 50.0 mg/kg/injection, schedule: Q04DX003 (ip), vehicle: water) is 95 % of control. Also, the T/C is, setting by setting: under setting [2], 95 % of control and 115 % of control; (dose: 100.0 mg/kg/injection, schedule: Q04DX003 (ip), vehicle: water) 102 % of control.
For `COC(=O)C(=O)[C@@H](O)[C@H](O)[C@@H](O)CO`, the T/C runs as follows: under setting [4], 100 % of control; under setting [5], 113 % of control; under setting [6], 109 % of control.
With `NS(=O)(=O)c1ccc(NC(=S)NC(=O)/C=C/c2ccccc2)cc1`, the T/C was 90 % of control (dose: 100.0 mg/kg/injection, schedule: Q04DX003 (sc), vehicle: olive oil, sesame oil, peanut oil); 90 % of control (dose: 200.0 mg/kg/injection, schedule: Q04DX003 (sc), vehicle: olive oil, sesame oil, peanut oil); 90 % of control (dose: 400.0 mg/kg/injection, schedule: Q04DX003 (sc), vehicle: olive oil, sesame oil, peanut oil).
In the case of `CN1CCN(C)P1OCC(F)(F)F`, the T/C by setting is: (dose: 25.0 mg/kg/injection, schedule: Q01DX005 (ip), vehicle: saline) 87 % of control; (dose: 50.0 mg/kg/injection, schedule: Q01DX005 (ip), vehicle: saline) 100 % of control; (dose: 100.0 mg/kg/injection, schedule: Q01DX005 (ip), vehicle: saline) 87 % of control.
Regarding `CCOC(=O)C(OCC)P(=O)(OCC)OCC` (centres undefined), the T/C (dose: 25.0 mg/kg/injection, schedule: Q04DX003 (ip), vehicle: Klucel (hydroxypropylcellulose) (HPC)) was 93 % of control; the T/C (dose: 50.0 mg/kg/injection, schedule: Q04DX003 (ip), vehicle: Klucel (hydroxypropylcellulose) (HPC)) is 97 % of control; the T/C under setting [11] was 91 % of control; the T/C under setting [13] was 90 % of control; the T/C under setting [16] is 93 % of control.
On to `C=CCNC(=O)NCC=C`, for which, for the setting “dose: 100.0 mg/kg/injection, schedule: Q01DX010 (ip), vehicle: saline”, the T/C is 161 % of control.
As for `COc1cc2c3c4c1OCc1c5c(cc(c1-4)CC3[N+](C)(C)CC2)OCO5` (centres undefined), the T/C reads like this: (dose: 6.25 mg/kg/injection, schedule: Q01DX001 (ip), vehicle: saline) 105 % of control; (dose: 12.5 mg/kg/injection, schedule: Q01DX001 (ip), vehicle: saline) 99 % of control.
As to `COC(=O)CN(c1c(C)cc(C)c(N)c1C)S(=O)(=O)c1ccccc1`, the T/C runs as follows: under setting [10], 91 % of control; under setting [15], 100 % of control.
For `NC(=O)c1ncn[nH]1`, the T/C was 95 % of control under setting [1]; 104 % of control (dose: 50.0 mg/kg/injection, schedule: Q04DX003 (ip), vehicle: saline with Tween-80); 87 % of control under setting [2]; 100 % of control under setting [12]; 104 % of control under setting [3]; 100 % of control under setting [14].
As to `CN1c2ccc(Cl)cc2C(=O)NC1c1ccc([N+](=O)[O-])s1` (centres undefined), the T/C runs as follows: under setting [1], 98 % of control and 110 % of control; under setting [2], 104 % of control and 113 % of control; under setting [3], 112 % of control.

The values above are taken from PubChem BioAssay AID328 (DTP/NCI, 2004).
